Data reported in US20040121946A9, “Inducing cellular immune responses to her2/neu using peptide and nucleic acid compositions” (priority 2002, published 2004).
Where a SMILES comes first, the peptide text is derived from it. Where no end group is shown, it is not given here. [ ]: non-standard residue; d: D form. Abu = CC[C@H](N)C(=O)O

Columns and labels:
HLA-A*3301 = HLA-A*3301 (Homo sapiens, UniProt P04439, A270S/D185E/E176V/E277Q/E87N/F33T/G231S/H175R/I121M/I218V/I322F/K168Q/K210R/L300P/L318F/M331R/P217A/Q86R/Q94H/R138Q/T323A/T345S/T97I/V358M/Y195H); assay type: binding; details: Table XXIII, HLA-A3 supermotif-bearing peptides
HLA-A*6801 = HLA-A*6801 (Homo sapiens, UniProt P04439, A269V/D185E/E176V/E277Q/E87N/F33Y/G231S/I121M/I166T/I218V/L180W/L300P/L318F/N151K/P208A/P217A/Q86R/R169H/T345S); assay type: binding; details: Table XXIII, HLA-A3 supermotif-bearing peptides
[1] = test system: A3-supertype alleles (A*0301, A*1101, A*3101, A*3301, A*6801); test: A3-supertype cross-reactive binding; set-up: species or system human; details: of five A3-supertype alleles tested
HLA-A*1101 = HLA-A*1101 (Homo sapiens, UniProt P04439, A114D/D185E/E176A/F33Y/L180Q/S129P/T187R); assay type: binding; details: Table XXIII, HLA-A3 supermotif-bearing peptides
HLA-A*1101, sequence (P04439 25-365 limits assumed, stated change not applied): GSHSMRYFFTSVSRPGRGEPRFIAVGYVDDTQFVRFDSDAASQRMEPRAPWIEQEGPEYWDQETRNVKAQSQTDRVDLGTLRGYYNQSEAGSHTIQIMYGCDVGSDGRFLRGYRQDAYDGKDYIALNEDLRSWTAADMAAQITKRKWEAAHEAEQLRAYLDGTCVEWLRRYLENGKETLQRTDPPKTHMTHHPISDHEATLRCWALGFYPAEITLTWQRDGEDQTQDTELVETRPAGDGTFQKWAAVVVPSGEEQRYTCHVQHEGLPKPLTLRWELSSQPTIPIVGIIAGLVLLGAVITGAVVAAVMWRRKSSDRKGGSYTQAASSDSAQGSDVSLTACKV

HLA-A*0301 = HLA-A*0301 (Homo sapiens, UniProt P04439); assay type: binding; details: Table XXIII, HLA-A3 supermotif-bearing peptides
HLA-A*3101 = HLA-A*3101 (Homo sapiens, UniProt P04439, A270S/D185E/E176V/E277Q/F33T/G231S/G80R/H175R/I121M/I218V/I322F/K168Q/L300P/L318F/M331R/P217A/Q94H/R138Q/T323A/T345S/T97I/V358M); assay type: binding; details: Table XXIII, HLA-A3 supermotif-bearing peptides
[2] = test system: peptide-pulsed target cells and transfected cells endogenously expressing the antigen; test: Recall CTL responses of PBMCs from ovarian cancer patients; assay type: cell-based, human; details: for recognition by CTLs from cancer patient PBMCs: two patients with ovarian cancer, peptide-pulsed targets and transfected cells; for CTL Tumor / CTL Wildtype: data from ovarian cancer patients
Excerpt: Immunogenicity was additionally confirmed using PBMCs isolated from cancer patients. Briefly, PBMCs were isolated from two patients with ovarian cancer, re-stimulated with peptide-pulsed monocytes and assayed for the ability to recognize peptide-pulsed target cells as well as transfected cells endogenously expressing the antigen.

Row | Compound | IC50 (HLA-A*3301) [nM] | IC50 (HLA-A*6801) [nM] | No. of A3 Alleles Crossbound [1] | IC50 (HLA-A*1101) [nM] | IC50 (HLA-A*0301) [nM] | IC50 (HLA-A*3101) [nM] | recognition by CTLs from cancer patient PBMCs [2] | CTL Tumor [2] | CTL Wildtype [2]
1 | AVPLDSTFYK [Her2/neU.997.V2K10] | 22300 | 229 | 2 | 33 | 550 | 1500 |  |  | 
2 | CC[C@H](NC(=O)CNC(=O)CNC(=O)[C@H](C)NC(=O)[C@H](CC)NC(=O)[C@@H](NC(=O)[C@@H](N)[C@@H](C)O)C(C)C)C(=O)N[C@@H](C)C(=O)N[C@@H](CCCCN)C(=O)O [Her2/neu.218.B3B7K9] (H-TV[Abu]AGG[Abu]AK-OH) | > 10000 | 7.3 | 3 | 29 | 24 | > 10000 |  |  | 
3 | CC[C@H](C)[C@H](N)C(=O)N[C@H](C(=O)N[C@@H](Cc1c[nH]c2ccccc12)C(=O)N[C@@H](CC(C)C)C(=O)NCC(=O)N[C@@H](CC(C)C)C(=O)N[C@@H](CCCNC(=N)N)C(=O)N[C@@H](CO)C(=O)N[C@@H](CC(C)C)C(=O)N[C@@H](CCCCN)C(=O)O)C(C)C [Her2/neu.450.V2K10] | 2070 | 12 | 4 | 128 | 3.9 | 273 |  |  | 
4 | CC[C@H](NC(=O)CNC(=O)CNC(=O)[C@H](C)NC(=O)[C@H](CC)NC(=O)[C@@H](NC(=O)[C@@H](N)[C@@H](C)O)C(C)C)C(=O)N[C@@H](C)C(=O)N[C@@H](CCCNC(=N)N)C(=O)O [Her2/neu.218.B3B7] (H-TV[Abu]AGG[Abu]AR-OH) | 242 | 8 | 5 | 111 | 314 | 247 |  |  | 
5 | CC(C)C[C@H](NC(=O)[C@H](CCC(N)=O)NC(=O)[C@H](CC(=O)O)NC(=O)[C@H](Cc1c[nH]c2ccccc12)NC(=O)[C@@H]1CCCN1C(=O)[C@@H](NC(=O)[C@@H](NC(=O)[C@@H](N)Cc1c[nH]cn1)[C@@H](C)O)C(C)C)C(=O)N[C@@H](Cc1ccccc1)C(=O)N[C@@H](CCCNC(=N)N)C(=O)O [Her2/neu.478] | 88 | 4 | 4 | 83 | 3140 | 19 |  |  | 
6 | CC(C)C[C@H](NC(=O)[C@H](Cc1ccccc1)NC(=O)[C@H](CCC(N)=O)NC(=O)[C@H](CO)NC(=O)[C@H](CS)NC(=O)[C@H](CC(N)=O)NC(=O)[C@@H](NC(=O)[C@@H](N)CS)C(C)C)C(=O)N[C@@H](CCCNC(=N)N)C(=O)O [Her2/neu.528] | 50 | 18 | 4 | 194 | 7330 | 34 |  |  | 
7 | CC[C@H](NC(=O)[C@H](CC(N)=O)NC(=O)[C@@H](NC(=O)[C@@H](N)CC)C(C)C)C(=O)N[C@@H](CO)C(=O)N[C@@H](CCC(N)=O)C(=O)N[C@@H](Cc1ccccc1)C(=O)N[C@@H](CC(C)C)C(=O)N[C@@H](CCCCN)C(=O)O [Her2/neu.528.B1B4K9] (H-[Abu]VN[Abu]SQFLK-OH) | 4270 | 15 | 4 | 22 | 34 | 60 |  |  | 
8 | CC[C@H](NC(=O)[C@H](CC(N)=O)NC(=O)[C@@H](NC(=O)[C@@H](N)CC)C(C)C)C(=O)N[C@@H](CO)C(=O)N[C@@H](CCC(N)=O)C(=O)N[C@@H](Cc1ccccc1)C(=O)N[C@@H](CC(C)C)C(=O)N[C@@H](CCCNC(=N)N)C(=O)O [Her2/neu.528.B1B4] (H-[Abu]VN[Abu]SQFLR-OH) | 58 | 10 | 5 | 80 | 177 | 38 |  |  | 
9 | CC(C)[C@H](NC(=O)[C@@H](N)[C@@H](C)O)C(=O)N[C@@H](CS)C(=O)N[C@@H](C)C(=O)NCC(=O)NCC(=O)N[C@@H](CS)C(=O)N[C@@H](C)C(=O)N[C@@H](CCCNC(=N)N)C(=O)O [Her2/neu.218] | 326 | 83 | 4 | 261 | > 10000 | 129 |  |  | 
10 | CC[C@H](C)[C@H](N)C(=O)N[C@@H](CO)C(=O)N[C@@H](Cc1c[nH]c2ccccc12)C(=O)N[C@@H](CC(C)C)C(=O)NCC(=O)N[C@@H](CC(C)C)C(=O)N[C@@H](CCCNC(=N)N)C(=O)N[C@@H](CO)C(=O)N[C@@H](CC(C)C)C(=O)N[C@@H](CCCNC(=N)N)C(=O)O [Her2/neu.450] | 223 | 73 | 4 | 2220 | 268 | 6.9 |  |  | 
11 | CC(C)C[C@H](NC(=O)[C@H](CCC(N)=O)NC(=O)[C@@H](NC(=O)[C@@H](NC(=O)[C@H](CO)NC(=O)[C@@H](NC(=O)[C@H](CC(C)C)NC(=O)[C@@H](N)CS)[C@@H](C)O)[C@@H](C)O)C(C)C)C(=O)N[C@H](C(=O)O)C(C)C [Her2/neu.789] |  |  |  |  |  |  | recognized peptide-pulsed targets only |  | 
12 | CSCC[C@H](NC(=O)[C@@H](N)C(C)C)C(=O)N[C@@H](C)C(=O)NCC(=O)N[C@H](C(=O)NCC(=O)N[C@@H](CO)C(=O)N1CCC[C@H]1C(=O)N[C@@H](Cc1ccc(O)cc1)C(=O)N[C@H](C(=O)O)C(C)C)C(C)C |  |  |  |  |  |  |  | 1/2 | 1/2
13 | LVKSPNHVR [Her2/neu.852.R9] | 107 | 50 | 3 | > 10000 | 7860 | 198 |  |  | 
14 | CC[C@H](C)[C@H](N)C(=O)N[C@@H](CC(C)C)C(=O)N[C@@H](Cc1c[nH]cn1)C(=O)N[C@@H](CC(N)=O)C(=O)NCC(=O)N[C@@H](C)C(=O)N[C@@H](Cc1ccc(O)cc1)C(=O)N[C@@H](CO)C(=O)N[C@@H](CC(C)C)C(=O)O |  |  |  |  |  |  |  | 2/2 | 2/2
15 | CC(C)C[C@H](NC(=O)[C@@H]1CCCN1C(=O)[C@@H](NC(=O)[C@H](C)N)C(C)C)C(=O)N[C@@H](CC(=O)O)C(=O)N[C@@H](CO)C(=O)N[C@H](C(=O)N[C@@H](Cc1ccccc1)C(=O)N[C@@H](Cc1ccc(O)cc1)C(=O)N[C@@H](CCCNC(=N)N)C(=O)O)[C@@H](C)O [Her2/neu.997.V2] | 2640 | 73 | 2 | 88 |  | 30000 |  |  | 
16 | CC[C@H](C)[C@H](N)C(=O)N[C@@H](CC(C)C)C(=O)N[C@@H](Cc1c[nH]cn1)C(=O)N[C@@H](CC(N)=O)C(=O)NCC(=O)N[C@@H](C)C(=O)N[C@@H](Cc1ccc(O)cc1)C(=O)N[C@@H](CO)C(=O)N[C@@H](CC(C)C)C(=O)O [Her2/neu.435] |  |  |  |  |  |  | recognized in 2 donors |  | 
17 | CC[C@H](C)[C@H](NC(=O)CNC(=O)[C@H](Cc1ccccc1)NC(=O)[C@@H](NC(=O)[C@@H](NC(=O)CNC(=O)[C@H](CC(C)C)NC(=O)[C@@H](NC(=O)[C@@H](N)C(C)C)C(C)C)C(C)C)C(C)C)C(=O)O [Her2/neu.665] |  |  |  |  |  |  | recognized by CTLs from only one of the two patients |  | 
18 | CC[C@H](C)[C@H](N)C(=O)N[C@H](C(=O)N[C@@H](Cc1c[nH]c2ccccc12)C(=O)N[C@@H](CC(C)C)C(=O)NCC(=O)N[C@@H](CC(C)C)C(=O)N[C@@H](CCCNC(=N)N)C(=O)N[C@@H](CO)C(=O)N[C@@H](CC(C)C)C(=O)N[C@@H](CCCNC(=N)N)C(=O)O)C(C)C [Her2/neu.450.V2] | 193 | 7.3 | 4 |  | 234 | 11 |  |  | 
19 | CC(C)C[C@H](NC(=O)[C@H](CC(C)C)NC(=O)[C@@H](N)CCCNC(=N)N)C(=O)N[C@@H](CCC(N)=O)C(=O)N[C@@H](CCC(=O)O)C(=O)N[C@H](C(=O)N[C@@H](CCC(=O)O)C(=O)N[C@@H](CC(C)C)C(=O)N[C@H](C(=O)O)C(C)C)[C@@H](C)O [Her2/neu.689] |  |  |  |  |  |  | is also an epitope |  | 
20 | HVVPWDQLFR [Her2/neu.478.V2] | 193 | 3.6 | 3 | 1330 | 7330 |  |  |  | 
21 | CC[C@H](C)[C@H](NC(=O)[C@@H](N)CCCCN)C(=O)N[C@@H](Cc1ccccc1)C(=O)NCC(=O)N[C@@H](CO)C(=O)N[C@@H](CC(C)C)C(=O)N[C@@H](C)C(=O)N[C@@H](Cc1ccccc1)C(=O)N[C@@H](CC(C)C)C(=O)O [Her2/neu.369] |  |  |  |  |  |  | recognized in 2 donors |  | 
22 | CC(C)C[C@H](NC(=O)[C@H](CCC(N)=O)NC(=O)[C@H](CC(=O)O)NC(=O)[C@H](Cc1c[nH]c2ccccc12)NC(=O)[C@@H]1CCCN1C(=O)[C@@H](NC(=O)[C@@H](NC(=O)[C@@H](N)Cc1c[nH]cn1)C(C)C)C(C)C)C(=O)N[C@@H](Cc1ccccc1)C(=O)N[C@@H](CCCCN)C(=O)O [Her2/neu.478.V2K10] | > 10000 | 8.9 | 3 | 375 | 180 | > 10000 |  |  | 
